The nature of one series: Osmotic pressure of saturated solutions by vapor pressure osmometer. The note with it: Hewlett Packard vapor pressure osmometer; ±10%. It is filed as physicochemical. As for the experimental part:
The osmotic solute may be initially present in excess and it can be in any physical form that is compatible with the proton pump inhibitor, the dosage form, and the osmopolymer. […] In the table, the osmotic pressure π, is in atmospheres, atm. The osmotic pressure is measured in a commercially available osmometer that measures the vapor pressure difference between pure water and the solution to be analyzed and, according to standard thermodynamic principles, the vapor pressure ratio is converted into osmotic pressure difference. […] The osmometer used for the present measurements is identified as Model 320B, Vapor Pressure Osmometer, manufactured by the Hewlett Packard Co., Avondale, Pa.
Turning to `[Cl-].[Na+]` [Sodium Chloride], the “π value (osmotic pressure)” value worked out at 345 atm.

Still in this series, the particulars now being: saturated solutions at 37° C., in water.
With `O=P([O-])([O-])O.[Na+].[Na+]` [Sodium Phosphate Dibasic Anhydrous], the “Osmotic Pressure in atm.” value stood at 29 atm.

`OC[C@@H](O)[C@@H](O)[C@H](O)[C@H](O)CO` [Mannitol]: the “Osmotic Pressure in atm.” value stood at 38 atm.

Take Sodium Phosphate Monobasic H2O: the “Osmotic Pressure in atm.” value came out at 28 atm.

As for `O.O.O.O.O.O.O.O.O.O.O.O.O=P([O-])([O-])[O-].[Na+].[Na+].[Na+]` [Sodium Phosphate Tribasic 12 H2O], the “Osmotic Pressure in atm.” value is 36 atm.

As for `O.O.O.O.O.O.O.O=P([O-])([O-])O.[Na+].[Na+]` [Sodium Phosphate Dibasic 7 H2O], the “Osmotic Pressure in atm.” value was 31 atm.

As to `O=S(=O)([O-])[O-].[K+].[K+]` [Potassium Sulfate], the “Osmotic Pressure in atm.” value amounted to 39 atm.

Turning to `[Cl-].[K+]` [Potassium Chloride], the “Osmotic Pressure in atm.” value is reported as 245 atm.

As for `[Cl-].[Na+]` [Sodium Chloride], the “Osmotic Pressure in atm.” value is reported as 356 atm.

On to `O=C(CO)[C@@H](O)[C@H](O)[C@H](O)CO` [Fructose], for which the “Osmotic Pressure in atm.” value came to 355 atm.

Consider `O.O.O.O.O.O.O.O.O.O.O.O.O=P([O-])([O-])O.[Na+].[Na+]` [Sodium Phosphate Dibasic 12 H2O], for which the “Osmotic Pressure in atm.” value was found to be 31 atm.

These data come from US20090110727A1, “Extended release compositions of proton pump inhibitors” (Eisai R & D management Co., Ltd., priority 2004, published 2009).
